Starred links: 1 amine or outer side, 2 acyl side, 3 side chain; linkers in the order of their positions; H or OH if unused. Non-standard residues stand in square brackets, D forms with d. Residues, ends and D or L forms follow the SMILES beside them. Groups on a side chain read outwards from the residue. *: point of attachment. C20 diacid = O=C(O)CCCCCCCCCCCCCCCCCCC(=O)*; C18 diacid = O=C(O)CCCCCCCCCCCCCCCCC(=O)*; γGlu = O=C(O)[C@H](CCC(=O)[*:2])N[*:1]; Aib = CC(C)(N)C(=O)O
Assay: PK measurements for half life assessment in pigs
Format: in vivo, pig
Conditions: male, large white, pig, plasma, sc, single subcutaneous injection, time from tmax to half of Cmax, typically mean of four animals
Experimental: Male large white pigs receive a single subcutaneous injection of the test compound at the start of study (0 hours). Repeated blood samples were taken from the pig over the proceeding 168 hours and plasma separated and stored at −20 to −80° C. Plasma concentration of the test compound was quantified using a radioimmunoassay or mass spectrum analysis. Time taken from tmax to half of Cmax was calculated and represents the half-life (t½) of the compound. Typically, the presented t½ is the mean of four separate animals.

Row | half-life | Molecule
1 | 4.29 days | CC[C@H](C)[C@H](NC(=O)[C@H](Cc1ccccc1)NC(=O)[C@H](CCC(=O)O)NC(=O)[C@H](CCC(N)=O)NC(=O)[C@H](C)NC(=O)[C@H](CCCNC(=N)N)NC(=O)[C@H](CCCCN)NC(=O)[C@H](C)NC(=O)[C@H](CC(=O)O)NC(=O)[C@H](CC(C)C)NC(=O)[C@H](Cc1ccc(O)cc1)NC(=O)[C@H](CCCCN)NC(=O)[C@H](CO)NC(=O)[C@H](Cc1ccc(O)cc1)NC(=O)[C@H](CC(=O)O)NC(=O)[C@H](CO)NC(=O)[C@@H](NC(=O)[C@H](Cc1ccccc1)NC(=O)[C@@H](NC(=O)CNC(=O)[C@H](Cc1c[nH]cn1)NC(=O)C(C)(C)NC(=O)[C@@H](N)Cc1c[nH]cn1)[C@@H](C)O)[C@@H](C)O)C(=O)N[C@@H](CCC(=O)O)C(=O)N[C@@H](Cc1c[nH]c2ccccc12)C(=O)N[C@@H](CC(C)C)C(=O)N[C@@H](CC(C)C)C(=O)N[C@@H](CCC(N)=O)C(=O)N[C@@H](CO)C(=O)N[C@@H](Cc1c[nH]cn1)C(=O)N[C@@H](CCC(N)=O)C(=O)N[C@@H](CCC(N)=O)C(=O)N[C@@H](Cc1c[nH]cn1)C(=O)N1CCC[C@H]1C(=O)N[C@@H](CO)C(=O)N[C@@H](CO)C(=O)N[C@@H](CO)C(=O)N[C@@H](CO)C(=O)N[C@@H](C)C(=O)N[C@@H](CCCCNC(=O)[C@H](CC(N)=O)NC(=O)CC[C@H](NC(=O)CCCCCCCCCCCCCCCCCCC(=O)O)C(=O)O)C(=O)O [Example 707] (H-H[Aib]HGTFTSDYSKYLDAKRAQEFIEWLLQSHQQHPSSSSAK([Asn-γGlu-C20 diacid])-OH)
2 | 4.38 days | CC[C@H](C)[C@H](NC(=O)[C@H](Cc1ccccc1)NC(=O)[C@H](CCC(=O)O)NC(=O)[C@H](CCC(N)=O)NC(=O)[C@H](C)NC(=O)[C@H](CCCNC(=N)N)NC(=O)[C@H](CCCCN)NC(=O)[C@H](C)NC(=O)[C@H](CC(=O)O)NC(=O)[C@H](CC(C)C)NC(=O)[C@H](Cc1ccc(O)cc1)NC(=O)[C@H](CCCCN)NC(=O)[C@H](CO)NC(=O)[C@H](Cc1ccc(O)cc1)NC(=O)[C@H](CC(=O)O)NC(=O)[C@H](CO)NC(=O)[C@@H](NC(=O)[C@H](Cc1ccccc1)NC(=O)[C@@H](NC(=O)CNC(=O)[C@H](Cc1c[nH]cn1)NC(=O)C(C)(C)NC(=O)[C@@H](N)Cc1c[nH]cn1)[C@@H](C)O)[C@@H](C)O)C(=O)N[C@@H](CCC(=O)O)C(=O)N[C@@H](Cc1c[nH]c2ccccc12)C(=O)N[C@@H](CC(C)C)C(=O)N[C@@H](CC(C)C)C(=O)N[C@@H](CCC(N)=O)C(=O)N[C@@H](CO)C(=O)N[C@@H](Cc1c[nH]cn1)C(=O)N[C@@H](CCC(N)=O)C(=O)N[C@@H](CCC(N)=O)C(=O)N[C@@H](Cc1c[nH]cn1)C(=O)N1CCC[C@H]1C(=O)N[C@@H](CO)C(=O)N[C@@H](CO)C(=O)N[C@@H](CO)C(=O)N[C@@H](C)C(=O)N[C@@H](CCCCNC(=O)[C@H](CC(N)=O)NC(=O)CC[C@H](NC(=O)CCCCCCCCCCCCCCCCCCC(=O)O)C(=O)O)C(=O)O [Example 708] (H-H[Aib]HGTFTSDYSKYLDAKRAQEFIEWLLQSHQQHPSSSAK([Asn-γGlu-C20 diacid])-OH)
3 | 4.54 days | H-H[Aib]HGTFTSDYSKYLDAKRAQEFIEWLLQSHQQHHESPPPGK([γGlu-C20 diacid])-OH [Example 642]
4 | 4 days | CC[C@H](C)[C@H](NC(=O)[C@H](Cc1ccccc1)NC(=O)[C@H](CCC(=O)O)NC(=O)[C@H](CCCNC(=N)N)NC(=O)[C@H](C)NC(=O)[C@H](CCCNC(=N)N)NC(=O)[C@H](CCCCN)NC(=O)[C@H](C)NC(=O)[C@H](CC(=O)O)NC(=O)[C@H](CC(C)C)NC(=O)[C@H](Cc1ccc(O)cc1)NC(=O)[C@H](CCCCN)NC(=O)[C@H](CO)NC(=O)[C@H](Cc1ccc(O)cc1)NC(=O)[C@H](CC(=O)O)NC(=O)[C@H](CO)NC(=O)[C@@H](NC(=O)[C@H](Cc1ccccc1)NC(=O)[C@@H](NC(=O)CNC(=O)[C@H](Cc1c[nH]cn1)NC(=O)C(C)(C)NC(=O)[C@@H](N)Cc1c[nH]cn1)[C@@H](C)O)[C@@H](C)O)C(=O)N[C@@H](CCC(=O)O)C(=O)N[C@@H](Cc1c[nH]c2ccccc12)C(=O)N[C@@H](CC(C)C)C(=O)N[C@@H](CC(C)C)C(=O)N[C@@H](CCC(N)=O)C(=O)N[C@@H](CO)C(=O)N[C@@H](Cc1c[nH]cn1)C(=O)N[C@@H](CCC(N)=O)C(=O)N[C@@H](CCC(N)=O)C(=O)N[C@@H](Cc1c[nH]cn1)C(=O)N[C@@H](CCC(=O)O)C(=O)N[C@@H](CO)C(=O)N1CCC[C@H]1C(=O)N1CCC[C@H]1C(=O)N1CCC[C@H]1C(=O)NCC(=O)N[C@@H](CCCCNC(=O)[C@H](CC(N)=O)NC(=O)CC[C@H](NC(=O)CCCCCCCCCCCCCCCCCCC(=O)O)C(=O)O)C(=O)O [Example 704] (H-H[Aib]HGTFTSDYSKYLDAKRAREFIEWLLQSHQQHESPPPGK([Asn-γGlu-C20 diacid])-OH)
5 | 3.46 days | CC[C@H](C)[C@H](NC(=O)[C@H](Cc1ccccc1)NC(=O)[C@H](CCC(=O)O)NC(=O)[C@H](CCC(N)=O)NC(=O)[C@H](C)NC(=O)[C@H](CCCNC(=N)N)NC(=O)[C@H](CCCCN)NC(=O)[C@H](C)NC(=O)[C@H](CC(=O)O)NC(=O)[C@H](CC(C)C)NC(=O)[C@H](Cc1ccc(O)cc1)NC(=O)[C@H](CCCCN)NC(=O)[C@H](CO)NC(=O)[C@H](Cc1ccc(O)cc1)NC(=O)[C@H](CC(=O)O)NC(=O)[C@H](CO)NC(=O)[C@@H](NC(=O)[C@H](Cc1ccccc1)NC(=O)[C@@H](NC(=O)CNC(=O)[C@H](Cc1c[nH]cn1)NC(=O)C(C)(C)NC(=O)[C@@H](N)Cc1c[nH]cn1)[C@@H](C)O)[C@@H](C)O)C(=O)N[C@@H](CCC(=O)O)C(=O)N[C@@H](Cc1c[nH]c2ccccc12)C(=O)N[C@@H](CC(C)C)C(=O)N[C@@H](CC(C)C)C(=O)N[C@@H](CCC(N)=O)C(=O)N[C@@H](CO)C(=O)N[C@@H](Cc1c[nH]cn1)C(=O)N[C@@H](CCC(N)=O)C(=O)N[C@@H](Cc1c[nH]cn1)C(=O)N1CCC[C@H]1C(=O)N[C@@H](CO)C(=O)N1CCC[C@H]1C(=O)N1CCC[C@H]1C(=O)N1CCC[C@H]1C(=O)N[C@@H](CCCCNC(=O)CC[C@H](NC(=O)CCCCCCCCCCCCCCCCCCC(=O)O)C(=O)O)C(=O)O [Example 544] (H-H[Aib]HGTFTSDYSKYLDAKRAQEFIEWLLQSHQHPSPPPK([γGlu-C20 diacid])-OH)

Continued, molecule first:

Row | Molecule | half-life
6 | CC[C@H](C)[C@H](NC(=O)[C@H](Cc1ccccc1)NC(=O)[C@H](CCC(=O)O)NC(=O)[C@H](CCC(N)=O)NC(=O)[C@H](C)NC(=O)[C@H](CCCNC(=N)N)NC(=O)[C@H](CCCCN)NC(=O)[C@H](C)NC(=O)[C@H](CC(=O)O)NC(=O)[C@H](CC(C)C)NC(=O)[C@H](Cc1ccc(O)cc1)NC(=O)[C@H](CCCCN)NC(=O)[C@H](CO)NC(=O)[C@H](Cc1ccc(O)cc1)NC(=O)[C@H](CC(=O)O)NC(=O)[C@H](CO)NC(=O)[C@@H](NC(=O)[C@H](Cc1ccccc1)NC(=O)[C@@H](NC(=O)CNC(=O)[C@H](Cc1c[nH]cn1)NC(=O)C(C)(C)NC(=O)[C@@H](N)Cc1c[nH]cn1)[C@@H](C)O)[C@@H](C)O)C(=O)N[C@@H](CCC(=O)O)C(=O)N[C@@H](Cc1c[nH]c2ccccc12)C(=O)N[C@@H](CC(C)C)C(=O)N[C@@H](CC(C)C)C(=O)N[C@@H](CCC(N)=O)C(=O)N[C@@H](CO)C(=O)N[C@@H](Cc1c[nH]cn1)C(=O)N[C@@H](Cc1c[nH]cn1)C(=O)N[C@@H](CCC(N)=O)C(=O)N[C@@H](CCC(N)=O)C(=O)N[C@@H](Cc1c[nH]cn1)C(=O)N[C@@H](CCC(=O)O)C(=O)N[C@@H](CO)C(=O)N1CCC[C@H]1C(=O)N1CCC[C@H]1C(=O)N1CCC[C@H]1C(=O)N[C@@H](CCCCNC(=O)[C@H](CC(N)=O)NC(=O)CC[C@H](NC(=O)CCCCCCCCCCCCCCCCCCC(=O)O)C(=O)O)C(=O)O [Example 549] (H-H[Aib]HGTFTSDYSKYLDAKRAQEFIEWLLQSHHQQHESPPPK([Asn-γGlu-C20 diacid])-OH) | 4.58 days
7 | H-H[Aib]HGTFTSDYSKYLDAKRAQEFIEWLLQSHQHQHESPPPGK([His-Asn-γGlu-C18 diacid])-OH [Example 640] | 5.62 days
8 | H-H[Aib]HGTFTSDYSKYLDAKRAQEFIEWLLQSHHQQHESPPPGK([γGlu-C20 diacid])-OH [Example 646] | 1.75 days
9 | CC[C@H](C)[C@H](NC(=O)[C@H](Cc1ccccc1)NC(=O)[C@H](CCC(=O)O)NC(=O)[C@H](Cc1c[nH]cn1)NC(=O)[C@H](C)NC(=O)[C@H](CCCNC(=N)N)NC(=O)[C@H](CCCCN)NC(=O)[C@H](C)NC(=O)[C@H](CC(=O)O)NC(=O)[C@H](CC(C)C)NC(=O)[C@H](Cc1ccc(O)cc1)NC(=O)[C@H](CCCCN)NC(=O)[C@H](CO)NC(=O)[C@H](Cc1ccc(O)cc1)NC(=O)[C@H](CC(=O)O)NC(=O)[C@H](CO)NC(=O)[C@@H](NC(=O)[C@H](Cc1ccccc1)NC(=O)[C@@H](NC(=O)CNC(=O)[C@H](Cc1c[nH]cn1)NC(=O)C(C)(C)NC(=O)[C@@H](N)Cc1c[nH]cn1)[C@@H](C)O)[C@@H](C)O)C(=O)N[C@@H](CCC(=O)O)C(=O)N[C@@H](Cc1c[nH]c2ccccc12)C(=O)N[C@@H](CC(C)C)C(=O)N[C@@H](CC(C)C)C(=O)N[C@@H](CCC(N)=O)C(=O)N[C@@H](CO)C(=O)N[C@@H](Cc1c[nH]cn1)C(=O)N[C@@H](CCC(N)=O)C(=O)N[C@@H](CCC(N)=O)C(=O)N[C@@H](Cc1c[nH]cn1)C(=O)N[C@@H](CCC(=O)O)C(=O)N[C@@H](CO)C(=O)N1CCC[C@H]1C(=O)N1CCC[C@H]1C(=O)N1CCC[C@H]1C(=O)N[C@@H](CCCCNC(=O)[C@H](CO)NC(=O)CNC(=O)CC[C@H](NC(=O)CCCCCCCCCCCCCCCCC(=O)O)C(=O)O)C(=O)O [Example 587] (H-H[Aib]HGTFTSDYSKYLDAKRAHEFIEWLLQSHQQHESPPPK([Ser-Gly-γGlu-C18 diacid])-OH) | 3.5 days

Source: patent publication US12516095B2, “Peptide hormone analogues” (IP2IPO INNOVATIONS LIMITED, priority 2019, dated 2026)
